Data published in patent US9327009B2, “Peptide inhibitors as novel anti-HIV therapeutics” (Council of Scientific & Industrial Research, priority 2012, dated 2016).

Target: Nef-ASK1 interaction (UniProt P03404+Q99683)
Settings: ATCC CRL-1573 cells co-transfected with Nef-ASK1g, 48 hours; ASK-1 alone 43.15, ASK-1 + Nef (background) 22.15, control 11.0
Protocol: HEK 293 cells were grown in Minimal Essential medium (low glucose, Sigma) supplemented with 10% fetal bovine serum, penicillin (100 units/ml), streptomycin (100 μg/ml) and Gentamycin (50 μg/ml) at 37° C. with 5% CO2. 1×10^5 cells were seeded per well in twenty four well plates, one day before transfection. Using commercially available ExGen 500 (fermentas) transfection reagent, all the required endotoxin free plasmid constructs were co-transfected into HEK 293 cells. 0.75 microgram of each plasmid and 5.0 micro liters per well ExGen 500 reagent were used. 48 h post transfection the cells were harvested and Luciferase activity was monitored using the Dual-Luciferase® Reporter assay kit (Promega). The data for basal control were used for the conversion of Luciferase activity to fold activation. As a positive control, the protein-protein interaction vectors pACTMyoD and pBIND-ID encoding the MyoD and ID control proteins, provided with the kit were used.
The ASK1g, h, i,j fragments alone and with Nef were transfected in ATCC CRL-1573™ cells. The transfected cells were cultured for 48 hours and were labeled with AnnexinV and PI staining for analyzing aspoptosis.
Inhibitors were designed from the crystal structure of Nef solved in our laboratory (Pankaj et al., 2011) The inhibitors were cultured with cells transfected will Nef, ASK1g and co-transfected with Nef-ASK1g. The cells after 48 hours were analysed for apoptosis using annexin V and PI staining.

Row | Sequence | % of Annexin V cells means apoptotic cells [%]
1 | LHGMEDPE [Peptide-4] | 23.0
2 | GENNCLLH [Peptide-2] | 24.96
3 | TPGPGVRYP [Peptide-1] | 22.45
4 | PVRPQVPLRP [Peptide-5] | 22.45
5 | DEVGEANN [Peptide-3] | 40.37
